The subject of series [1] is rats. Briefly: Diuretic and saluretic activity (urine volume and electrolyte excretion over 6 h), technique of Lipschits et al. It is filed as in vivo. The following applies: rat, 20 mg/kg po, (N) = not statistically significant vs control. As to the method:
The synthesized compounds were, therefore, subjected a pharmacological screening to evaluate a possible diuretic and salt excreting activity. Thus, an acute dose of each of the products of synthesis (20 or 25 mg/kg) was administered to rats and the amount of urine and the excretion of electrolytes was measured, following the technique described by Lipschits et al., with certain modifications (J. Pharmacol. Exp.Ther. 1943-79; 97-110).
The volume (ml/kg/6 h), the pH and the excretion of sodium, potassium and chloride ions (mEq/kg/6 h) were determined on the urine quantitatively collected over 6 hours, using triamterene and hydrochlorothiazide as reference diuretics.

In series [2] the test system is isolated guinea pig trachea. The series can be described thus: In vitro trachea relaxing activity (spontaneous tone in isolated trachea, method of Luduena). It is filed as cell-based. To be noted: Cavia porcellus, 30 mcg/ml, relative to maximum relaxation by noradrenaline 0.3 mcg/ml. The method, then: (§1) The platelet antiaggregation activity was determined in vitro using platelet rich rabbit plasma and arachidonic acid (50 mcg/ml) as aggregation inducing agent. The results are given for tracheal relaxation as percentage inhibition of the tracheal tone relative to the maximum relaxation induced by noradrenaline (0.3 mcg/ml) and for the platelet aggregation as a percentage of the maximum effect observed with the proaggregation agent.

The test system of series [3] is platelet rich rabbit plasma. The series can be described thus: In vitro platelet antiaggregation activity, arachidonic acid induced, platelet rich plasma. The following applies: Oryctolagus cuniculus; for activity at 10 µg/mL: 10 mcg/ml, arachidonic acid 50 mcg/ml. It is filed as cell-based. The method, then: as §1
Series [4] relates to human platelets. The series can be described thus: In vitro inhibition of human platelet aggregation, Born's method. It is filed as cell-based. The method, then:
The platelet antiaggregation activity of the active products in the initial screening (Table 4) has been confirmed and extended by evaluating the capacity thereof to inhibit in vitro the aggregation of human platelets using Born's method. ADP (1 mcM), collagen (2 mcg/ml), arachidonic acid (1 mM), U-46619 (1,4 mcM) and IBOP (225 nM) were used as aggregation inducing agents. The results obtained (Table 5) show the capacity of the products tested to inhibit dose dependently the platelet aggregation induced by collagen, arachidonic acid, U-46619 and IBOP, probably through interaction with the platelet endoperoxide/thromboxane receptor. Therefore, said compounds might be potentially useful in the treatment of disorders in which the thromboxanes play a part, such as myocardial infarct, cerebrovascular diseases and asthmatic and/or inflammatory states.

Series [5] in a line: Mortality rate in the mouse after a single oral dose of 1600 mg/kg. The following applies: in vivo, single oral dose 1600 mg/kg. As to the method: Likewise, to complete the superficial pharmacological profile, a check was made of the mortality rate in the mouse after oral administration of a single dose of 1600 mg/kg of each of the synthesized compounds (See Table 1).
In series [6] the test system is histamine induced bronchospasm in anaesthetized guinea pig. The series can be described thus: In vivo bronchodilatory effect, histamine induced bronchospasm (Konzett and Rossler). To be noted: area under the curve relative to theophylline. The method, then:
Konzett and Rosslet's technique was used for evaluation, with the capacity of the tested products, when administered intraduodenally at dose levels of 25 and 100 mg/kg, to antagonize a histamine induced bronchospasm (7.5 mcg/ml) in anaesthetized guinea pig being determined. Theophylline (25 mg/kg, i.d.) was used as reference drug, with the areas under the curve defined by the bronchospasm inhibition percentages and the post-administration time being compared.

The mark [7] stands for this setting: read-out: Cl excretion, treated group/control group ratio.
Setting [8] is: read-out: K excretion, treated group/control group ratio.
[9] abbreviates: read-out: Na excretion, treated group/control group ratio.
Where [10] appears, read: read-out: Volume urine, treated group/control group ratio.
[11] abbreviates: IBOP 225 nM, read-out: Concentration inhibiting > 60% platelet aggregation, IBOP.
Setting [12] is: U-46619 1,4 mcM, read-out: Concentration inhibiting > 60% platelet aggregation, U-46619.
Where [13] appears, read: arachidonic acid 1 mM, read-out: Concentration inhibiting > 60% platelet aggregation, arachidonic acid.
Setting [14] is: collagen 2 mcg/ml, read-out: Concentration inhibiting > 60% platelet aggregation, collagen.

Where two headings read alike, the source gives them in different places.

Data on ten molecules can be found in US5580869A, “1N substituted pyrazino[2,3-c]-1,2,6-thiadiazine 2,2-dioxides” (Prodesfarma, S.A., priority 1992, dated 1996).

As for `CCN1c2nc(C)c(-c3ccccc3)nc2C(N)=NS1(=O)=O` [1-ethyl-6-phenyl-7-methyl, 4-amino-1-ethyl-6-phenyl-7-methylpyrazino[2,3-c]-1,2,6-thiadiazine 2,2-dioxide], the response vs control in vivo at 20 mg/kg in series [1] (setting [7]) was determined as 123%; in series [1] (setting [8]), 85%; in series [1] (setting [9]) it was 142%; in series [1] (read-out: Na/K), 165%; in series [1] (setting [10]), 121%. The activity at 30 µg/mL in series [2] was found to be 93%. The same molecule yielded an activity at 10 µg/mL in series [3] of 100%. The IC60 in series [4] (setting [11]) came out at 3 µM; in series [4] (setting [12]), 3 µM; in series [4] (setting [13]), 30 µM; in series [4] (setting [14]), 1 µM.
`CCN1c2nc(-c3ccccc3)c(-c3ccccc3)nc2C(N)=NS1(=O)=O` [1-ethyl-6,7-diphenyl, 4-amino-1-ethyl-6,7-diphenylpyrazino[2,3-c]-1,2,6-thiadiazine 2,2-dioxide]: the activity at 10 µg/mL in series [3] is 100%. For the same molecule, the IC60 in series [4] (setting [11]) amounted to 3 µM; in series [4] (setting [12]) it was 1 µM; in series [4] (setting [13]), 30 µM; in series [4] (setting [14]), 1 µM.
By mortality is commonly meant the share of the test organisms that died. Read a high mortality as fewer survivors. Take `CCc1nc2c(nc1C)C(N)=NS(=O)(=O)N2C` [7-ethyl-1,6-dimethyl, 4-amino-7-ethyl-1,6-dimethylpyrazino[2,3-c]-1,2,6-thiadiazine 2,2-dioxide]: the response vs control in vivo at 20 mg/kg in series [1] (setting [7]) was determined as 471%; in series [1] (setting [8]) it was 177%; in series [1] (setting [9]), 385%; in series [1] (read-out: Na/K), 218%; in series [1] (setting [10]), 152%. In series [5], the mortality came out at 0%. The molecule further returned an activity at 30 µg/mL in series [2] of 95%.
Turning to `CCN1c2ncc(-c3ccccc3)nc2C(N)=NS1(=O)=O` [1-ethyl-6-phenyl, 4-amino-1-ethyl-6-phenyl-pyrazino[2,3-c]-1,2,6-thiadiazine 2,2-dioxide], in series [3], the activity at 10 µg/mL came out at 100%. Besides, the IC60 in series [4] (setting [11]) worked out at 1 µM; in series [4] (setting [12]) it was 10 µM; in series [4] (setting [13]), 30 µM; in series [4] (setting [14]), 1 µM.
For the molecule `CCN1c2nc3c(nc2C(N)=NS1(=O)=O)CCCC3` [4-amino-1-ethyl-6,7,8,9-tetrahydro-1,2,6-thiadiazine[3,4-b]quinoxaline 2,2-dioxide], the activity at 30 µg/mL in series [2] is 82%. For the same molecule, the “Bronchodilatory activity (area ratio)” value in series [6] (25 mg/kg i.d.) is 0.6; in series [6] (100 mg/kg i.d.), 0.4.
The matching figures for `Cn1c(=O)c2[nH]cnc2n(C)c1=O` [Theophylline, reference compound]: 60%, 1 and 1.
`CCCN1c2nc(CC)c(C)nc2C(N)=NS1(=O)=O` [1-ethyl-6-methyl-1-propyl, 4-amino-7-ethyl-6-methyl-1-propylpyrazino[2,3-c]-1,2,6-thiadiazine 2,2-dioxide]: the response vs control in vivo at 20 mg/kg was determined as 530% in series [1] (setting [7]); 172% in series [1] (setting [8]); 502% in series [1] (setting [9]); 292% in series [1] (read-out: Na/K); 154% in series [1] (setting [10]). In series [5], the mortality was found to be 40%.
With `CCN1c2ncc(C)nc2C(N)=NS1(=O)=O` [1-ethyl-6-methyl, 4-amino-1-ethyl-6-methylpyrazino[2,3-c]-1,2,6-thiadiazine 2,2-dioxide], the activity at 30 µg/mL in series [2] is 67%. The “Bronchodilatory activity (area ratio)” value in series [6] (25 mg/kg i.d.) was 0.8; in series [6] (100 mg/kg i.d.), 1.3.
The molecule `CCN1c2nc(-c3ccccc3)c(Br)nc2C(N)=NS1(=O)=O` [6-bromo-1-ethyl-7-phenyl, 4-amino-6-bromo-1-ethyl-7-phenylpyrazino[2,3-c]-1,2,6-thiadiazine 2,2-dioxide] displayed an activity at 30 µg/mL in series [2] of 63%. Besides, the activity at 10 µg/mL in series [3] worked out at 100%.
As to `CC(=O)Oc1ccccc1C(=O)O` [Aspirin, reference compound], the activity at 2.5 µg/mL in series [3] (read-out: platelet antiaggregation activity (%)) was 100%.
